Drawing on PubChem BioAssay (NCI), this text covers TGI and GI50 for nine compounds.

Several values for one entry are separate records, joined by “and”; a condition that tells them apart may be missing. Equal values may be shown once.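 Dose response: 5 concentrations. Exposure: 48 h. Format: 96-well plates. Endpoint: linear interpolation; highest concentration if not reached. Abbreviation: GI50, concentration required for 50% inhibition of growth. TGI marks complete inhibition of growth.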 Bounds are passed on as bounds.

What all share (test): inhibition of tumour cell growth, NCI panel, 48 h
Assay [1] concerns SNB-19 CNS.
For assay [2], the system named is T-47D breast.
Assay [3] relates to MDA-MB-435.
Assay [4] has as its system ACHN renal.
In assay [5] the test system is MCF7 breast.
The subject of assay [6] is NCI-H226 lung.
The subject of assay [7] is NCI-H522 lung.
Assay [8] concerns K-562 leukemia.
Assay [9] deals with OVCAR-4 ovarian.
Assay [10] concerns OVCAR-3 ovarian.
For assay [11], the system named is UO-31 renal.
Assay [12] has as its system COLO 205 colon.
Assay [13] deals with KM12 colon.
Assay [14] concerns EKVX NSCLC.
For assay [15], the system named is SF-539 CNS.

Turning to `COc1ccc(OC)c2c1ccc1c(C)c3ccccc3c(C)c12`, the TGI in assay [1], in assay [2], in [3], in [4], in [5] and in assay [6] was over 100 µM each time. In addition, the TGI in [7], in assay [8], in assay [9], in assay [10] and in assay [11] was over 100 µM each time.
As for `Cc1cc(=O)[nH]c(Sc2ccc([N+](=O)[O-])cc2[N+](=O)[O-])n1`, the TGI in assay [12] is 15.7 µM; in assay [13], over 67.4 µM; in [1], over 66.8 µM; in assay [2], 43 µM; in assay [3], over 55.1 µM; in assay [4], 38.4 µM. Moreover, the TGI in assay [5] was 64.2 µM; in [6], 40.9 µM; in assay [7], 22.9 µM; in assay [8], over 100 µM; in assay [9], over 56.1 µM; in assay [10], 31.2 µM. Further, the TGI was over 57.2 µM in assay [14] and 37.1 µM in assay [11].
`CN1CCN(c2ccc3nc(-c4ccc5nc(CCCc6ccc(N(CCCl)CCCl)cc6)[nH]c5c4)[nH]c3c2)CC1`: the TGI in [15], in [12], in assay [13], in assay [1], in assay [2] and in [3] was over 100 µM each time. Besides, the TGI in [4], in assay [5], in assay [6], in [7], in [8] and in assay [9] was over 100 µM each time. In assay [11], the TGI was over 100 µM.
With `C[C@]12O[C@@]3(C)O[C@@]3(C)[C@]3(C)O[C@]3(C)[C@@]1(C)O2`, the TGI in assay [12], in assay [13], in [1], in [2], in assay [3] and in assay [4] was over 100 µM each time. The TGI in assay [5], in assay [6], in [7], in [8], in [9] and in [14] was over 100 µM throughout. The TGI in [11] was over 100 µM.
`O=C1CCCc2cc3c(cc21)CC1(C3)Cc2cc3c(cc2C1)C(=O)CCC3`: the TGI was 5.85 µM in assay [15]; 5.06 µM in assay [12]; 7.85 µM in assay [13]; over 100 µM in assay [1]; over 100 µM in assay [2]; 35.8 µM in assay [4]. The TGI in assay [5] was 15.3 µM; in assay [6] it was 23.4 µM; in [7], 6.15 µM; in [8], over 42.2 µM; in assay [9] it was 82.7 µM; in [10], 7.2 µM. In addition, the TGI was over 100 µM in assay [14] and 81.4 µM in assay [11].
For `O=C(/C=C/c1ccc(O)c(O)c1)O[C@H]1CCCC[C@@H]1OC(=O)/C=C/c1ccc(O)c(O)c1`, the TGI in assay [15] is over 100 µM; in assay [12] it was 56.2 µM; in assay [13], 73.3 µM; in [1], 73.8 µM; in assay [2], 98.8 µM; in [3], 27.1 µM. Also, the TGI in assay [4] was 38.3 µM; in assay [5], 70.2 µM; in assay [7], 20.8 µM; in [8], over 100 µM; in assay [9], over 100 µM; in assay [10] it was 26.7 µM. Also, the TGI in [14] was determined as 53.8 µM; in assay [11], 27.8 µM.
Regarding `CC(=O)OC1OC(C2c3cccc(O)c3C(=O)c3c(O)cc(CO)cc32)C(O)C(O)C1O` (stereo not drawn), the TGI in assay [15] was 4.22 µM and 4.73 µM; in assay [12], 7.63 µM; in assay [13], 4.54 µM and 4.23 µM; in [1], 6.7 µM and 6.51 µM; in assay [2], 27.3 µM and 15.6 µM; in [3], 11.6 µM and 14.3 µM. For the same compound, the TGI is 35.3 µM and > 100 µM in [5]; 18.8 µM and 16.7 µM in [7]; over 100 µM in assay [8]; over 100 µM in assay [9]; 22.4 µM and 12.1 µM in assay [10]; 36.8 µM and 26 µM in assay [14]. Further, in [11], the TGI is 22.5 µM and 21.3 µM. Moreover, the GI50 is 2.7 µM in [12]; 0.811 µM and 0.17 µM in assay [13]; 9.16 µM and 3.51 µM in assay [10].
As to `O=S(=O)(N1CCCCN(S(=O)(=O)C(F)(F)F)CCCN(S(=O)(=O)C(F)(F)F)CCCCN(S(=O)(=O)C(F)(F)F)CCCN(S(=O)(=O)C(F)(F)F)CCCCN(S(=O)(=O)C(F)(F)F)CCCN(S(=O)(=O)C(F)(F)F)CCCCN(S(=O)(=O)C(F)(F)F)CCC1)C(F)(F)F`, the TGI in assay [15] was over 31.6 µM; in assay [12], over 100 µM; in assay [13] it was over 31.6 µM; in assay [1] it was over 31.6 µM; in assay [2], over 31.6 µM; in assay [3], over 31.6 µM. For the same compound, the TGI was over 31.6 µM in [4]; over 31.6 µM in [6]; over 31.6 µM in assay [7]; over 31.6 µM in [8]; over 100 µM in assay [9]; over 31.6 µM in [10]. Moreover, the TGI in assay [14] and in assay [11] was over 31.6 µM throughout.
For `CN(C(=O)C12C3(C(=O)O)C4C5(C(=O)O)C3C1(C(=O)O)C5C42C(=O)O)C(C)(C)C` (stereo not drawn), the TGI in assay [15], in assay [12], in [13], in assay [1], in assay [2] and in assay [3] was over 100 µM throughout. Also, the TGI in assay [4], in assay [5], in assay [7], in [8], in assay [9] and in assay [10] was over 100 µM each time. Besides, the TGI in assay [14] and in assay [11] was over 100 µM each time.
